From patent US7994167B2, “Pentafluorosulphanyl-substituted compound and its use for producing medicaments” (Gruenenthal GmbH, priority 2005, dated 2011)
Where two headings read alike, the source gives them in different places.

How the values were obtained:
[1] = target: vanilloid receptor 1 (VR1/TRPV1 receptor) (Homo sapiens, UniProt Q8NER1); assay: Binding affinity for the vanilloid receptor 1
Procedure: The affinity of the pentafluorosulphanyl-substituted compounds according to the invention for the vanilloid receptor 1 (VR1/TRPV1 receptor) was determined as described above.

[2] = target: T1, vanilloid receptor 1 (VR1/TRPV1) of the rat (Rattus norvegicus, UniProt O35433); assay: FLIPR Ca2+ influx assay in rat dorsal root ganglia cells (functional investigation I); assay type: cell-based; settings: for IC50: VR1 rat; for VR1 (rat) (% blocking compared with 1 μM CP) / VR1 (rat) (% stimulation compared with 1 μM CP): rat DRG cells, test compound 1 μM; for VR1 (rat) (% blocking compared with 1 μM CP): 5 min incubation, then 100 nM capsaicin; for VR1 (rat) (% stimulation compared with 1 μM CP): Ca2+ signal relative to 1 μM capsaicin (CP)
T1 construct: The spinal column was removed from decapitated rats; from tissue; host or cells: primary rat dorsal root ganglion (DRG) cells
Source text: I. Functional Investigation Using the Vanilloid Receptor 1 (VR1/TRPV1 Receptor)
The agonistic and antagonistic effects of the substances under investigation on the vanilloid receptor 1 (VR1/TRPV1) of the rat can be determined using the following assay. According to this assay, the Ca^2+ influx through the receptor channel is quantified with the aid of a Ca^2+-sensitive dye (of the type Fluo-4, from Molecular Probes Europe BV, Leiden, Netherlands) in a Fluorescent Imaging Plate Reader (FLIPR, from Molecular Devices, Sunnyvale, USA).
Complete medium: 10% by volume FCS (foetal calf serum, from Gibco Invitrogen GmbH, Karlsruhe, Germany, heat deactivated);
2 mM L-glutamine (from Sigma, Munich, Germany);
1% by weight of AA solution (antibiotic/antimycotic solution, from PAA, Pasching, Austria) and 25 ng/ml Medium NGF (2.5 S, from Gibco Invitrogen GmbH, Karlsruhe, Germany)
Cell culture plate: poly-D-lysine-coated, black 96-well plates with clear bases (96 well black/clear plate, from BD Biosciences, Heidelberg, Germany) were also coated with laminin (from Gibco Invitrogen GmbH, Karlsruhe, Germany), in that the laminin was diluted to a concentration of 100 μg/ml with PBS (Ca—Mg-free PBS, from Gibco Invitrogen GmbH, Karlsruhe, Germany). Aliquots with a concentration of 100 μg/ml of laminin were taken and stored at −20° C. The aliquots were diluted with PBS in a ratio of 1:10 to 10 μg/ml laminin and 50 μl of the solution was pipetted into each well in the cell culture plate. The cell culture plates were then incubated for at least two hours at 37° C., the residual solution drawn off and the wells washed twice with PBS. The coated cell culture plates were stored with the residual PBS, which was removed immediately before offering up the cells.
Preparation of the Cells:
The spinal column was removed from decapitated rats and laid directly into cold (placed in an ice bath) HBSS buffer (Hank's buffered saline solution, from Gibco Invitrogen GmbH, Karlsruhe, Germany) to which was added 1% by volume of an AA-solution (antibiotic/antimycotic solution, from PAA, Pasching, Austria). The spinal column was bisected longitudinally and removed, together with the fasciae, from the vertebral canal. The dorsal root ganglia (DRGs) were then removed and again placed in cold HBSS buffer to which was added 1% by volume of an AA-solution, and stored. The DRGs, completely freed from residual blood and spinal nerves were transferred, in each case, into 500 μl cold collagenase type 2 (from PAA, Pasching, Austria) and incubated for 35 minutes at 37° C. Following addition of 2.5% by volume of trypsin (from PAA, Pasching, Austria), the material was incubated for a further 10 minutes at 37° C. Following complete incubation, the enzyme solution was carefully pipetted off and 500 μl complete medium was added to the remaining DRGs. The DRGs were suspended several times in each case, drawn by means of a syringe through No. 1, No. 12 and No. 16 cannulae and transferred to 50 ml Falcon tubes and these then filled to 15 ml with complete medium. The contents of each Falcon tube was filtered through a 70 μm Falcon filter insert and centrifuged for 10 minutes at 1200 revolutions and at room temperature. The resulting pellet was added, in each case, to 250 μl complete medium and the cell count was determined.
The number of cells in the suspension was adjusted to 3×10^5 per ml and, in each case, 150 μl of this suspension was placed in a well in the coated cell culture plate of the type described above. The plates were left in an incubation cupboard at 37° C. under 5% by volume CO2 and 95% relative humidity for two to three days. […]

VR1 (human) = target: T2, VR1 (human) (Homo sapiens, UniProt Q8NER1); assay: FLIPR Ca2+ influx assay in CHO K1 cells stably transfected with the VR1 gene (functional investigation II); assay type: cell-based; settings: for VR1 (human) (% blocking compared with 1 μM CP) / VR1 (human) (% stimulation compared with 1 μM CP): VR1-transfected CHO K1 cells; for VR1 (human) (% blocking compared with 1 μM CP): 5 min incubation, then 100 nM capsaicin; for VR1 (human) (% stimulation compared with 1 μM CP): Ca2+ signal relative to capsaicin (CP)
T2 construct: expressed in transfected cells; host or cells: CHO K1 cells (ECACC)
Source text: II. Functional Investigation Using the Vanilloid Receptor (VR1)
The agonistic or antagonistic effect of the substances to be investigated on the vanilloid receptor (VR1) can also be determined with the following assay. According to this assay, the Ca^2+ influx through the channel can be quantified with the aid of a Ca^2+ sensitive dye (of the type Fluo-4, from Molecular Probes, Europe BV, Leiden, Netherlands) in a Fluorescent Imaging Plate Reader (FLIPR, from Molecular Devices, Sunnyvale, USA).
Chinese hamster ovary cells (CHO K1-cells, from the European Collection of Cell Cultures (ECACC), UK) were stably transfected with the VR1 gene. For functional investigations, these cells were plated out on Poly-D-lysine-coated, black 96-well plates with clear bases (from BD Biosciences, Heidelberg, Germany) at a density of 25,000 cells/well. The cells were incubated over night at 37° C. and under 5% CO2 in a culture medium (Nutrient Mixture Ham's F12, 10% by volume FCS (foetal calf serum), 18 μg/ml L-proline). The following day, the cells were incubated with Fluo-4 (Fluo-4 2 μM, Pluronic F127 0.01% by volume, from Molecular Probes in HBSS (Hank's buffered saline solution), from Gibco Invitrogen GmbH, Karlsruhe, Germany) for 30 minutes at 37° C. Subsequently, the plates were washed 3 times with HBSS buffer and, following a further period of incubation for 15 minutes at room temperature, placed in the FLIPR for Ca^2+ measurement. The Ca^2+-dependent fluorescence was measured before and after the addition of the substances to be investigated (wavelength λBX=488 nm, λem=540 nm). Quantification took place by measuring the highest intensity of fluorescence (FC, fluorescence counts) over time.
The FLIPR protocol comprises 2 substance additions. […] Following 5 minutes of incubation, 100 nM capsaicin were applied and the Ca^2+ influx determined again.
Desensitising agonists and antagonists lead to a suppression of the Ca^2+ influx. % inhibition is calculated, compared with the maximum achievable inhibition with 10 μM capsaicin.

vanilloid receptor 1 (VR1/TRPV1 receptor), sequence (Q8NER1 whole entry, species assumed): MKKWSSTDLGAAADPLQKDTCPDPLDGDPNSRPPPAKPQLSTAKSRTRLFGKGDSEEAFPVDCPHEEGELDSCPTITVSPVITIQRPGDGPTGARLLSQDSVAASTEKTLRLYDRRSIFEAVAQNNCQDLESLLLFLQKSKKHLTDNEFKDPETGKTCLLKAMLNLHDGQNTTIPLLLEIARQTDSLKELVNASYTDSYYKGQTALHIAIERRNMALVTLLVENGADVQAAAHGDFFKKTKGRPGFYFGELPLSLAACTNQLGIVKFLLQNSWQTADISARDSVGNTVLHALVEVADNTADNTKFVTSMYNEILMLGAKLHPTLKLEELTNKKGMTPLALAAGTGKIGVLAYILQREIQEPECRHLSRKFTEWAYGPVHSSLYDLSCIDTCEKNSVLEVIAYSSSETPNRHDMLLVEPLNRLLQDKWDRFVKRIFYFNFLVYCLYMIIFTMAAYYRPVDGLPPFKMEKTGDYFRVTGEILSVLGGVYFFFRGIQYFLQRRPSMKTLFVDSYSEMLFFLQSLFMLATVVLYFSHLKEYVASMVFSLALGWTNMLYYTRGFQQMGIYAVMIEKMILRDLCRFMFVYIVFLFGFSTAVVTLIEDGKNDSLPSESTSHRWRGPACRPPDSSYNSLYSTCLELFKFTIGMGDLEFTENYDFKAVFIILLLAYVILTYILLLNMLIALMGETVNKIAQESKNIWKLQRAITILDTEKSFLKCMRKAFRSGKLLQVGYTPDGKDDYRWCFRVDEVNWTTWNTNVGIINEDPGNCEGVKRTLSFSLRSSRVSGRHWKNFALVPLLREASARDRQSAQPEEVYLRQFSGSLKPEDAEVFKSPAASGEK
T2 sequence (Q8NER1 whole entry): as the sequence (Q8NER1 whole entry, species assumed) above
T1 sequence (O35433 whole entry): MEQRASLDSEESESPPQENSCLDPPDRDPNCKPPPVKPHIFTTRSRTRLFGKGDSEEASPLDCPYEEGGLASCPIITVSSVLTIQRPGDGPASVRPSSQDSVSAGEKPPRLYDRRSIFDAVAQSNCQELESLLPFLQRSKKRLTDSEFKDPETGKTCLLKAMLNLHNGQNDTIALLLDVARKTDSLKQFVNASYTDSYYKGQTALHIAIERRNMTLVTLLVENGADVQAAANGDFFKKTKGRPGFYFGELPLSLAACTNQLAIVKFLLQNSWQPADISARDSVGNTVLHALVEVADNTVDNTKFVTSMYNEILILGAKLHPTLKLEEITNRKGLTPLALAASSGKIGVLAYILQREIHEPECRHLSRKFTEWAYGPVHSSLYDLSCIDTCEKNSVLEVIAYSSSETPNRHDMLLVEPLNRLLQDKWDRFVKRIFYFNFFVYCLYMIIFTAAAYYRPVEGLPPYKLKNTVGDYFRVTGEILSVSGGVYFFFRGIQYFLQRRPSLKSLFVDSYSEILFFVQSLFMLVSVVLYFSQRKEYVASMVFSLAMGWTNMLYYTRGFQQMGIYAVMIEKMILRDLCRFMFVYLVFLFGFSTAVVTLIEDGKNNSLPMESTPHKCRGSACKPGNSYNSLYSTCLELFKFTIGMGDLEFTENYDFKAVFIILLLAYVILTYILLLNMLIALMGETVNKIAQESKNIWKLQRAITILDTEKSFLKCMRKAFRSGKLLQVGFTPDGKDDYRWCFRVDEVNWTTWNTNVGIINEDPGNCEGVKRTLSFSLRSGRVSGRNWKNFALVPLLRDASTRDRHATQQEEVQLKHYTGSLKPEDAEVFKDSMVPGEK

Compound	Ki [1] [nM]	IC50 [2] [nM]	VR1 (rat) (% blocking compared with 1 μM CP) [2] [%]	VR1 (rat) (% stimulation compared with 1 μM CP) [2] [%]	IC50 (VR1 (human)) [nM]	VR1 (human) (% blocking compared with 1 μM CP) (VR1 (human)) [%]	VR1 (human) (% stimulation compared with 1 μM CP) (VR1 (human)) [%]	Ki ([1]; read-out: Binding Ki) [nM]	IC50 (VR1 (human); VR1 human, read-out: IC50 (human)) [nM]
O=C(Nc1ccc(S(F)(F)(F)(F)F)cc1)N1CCN(c2ncccc2Cl)CC1 [Example 2, 4-(3-chloro-pyridin-2-yl)-piperazine-1-carboxy-(4-pentafluorosulphanyl-phenyl)-amide]	12	48	101.93	0.63	250	105.44	3.72	–	–
FS(F)(F)(F)(F)c1ccc(NC(=S)N2CCN(c3ncccc3Cl)CC2)cc1 [Example 3, 4-(3-chloro-pyridin-2-yl)-piperazine-1-thiocarboxy-(4-pentafluorosulphanyl-phenyl)-amide]	–	–	–	–	–	–	–	94	–
CS(=O)(=O)Nc1ccc(CNC(=S)NCc2ccc(S(F)(F)(F)(F)F)cc2)cc1F [Example 1, N-{4-[3-(4-pentafluorosulphanyl-benzyl)-thioureidomethyl]-2-fluoro-phenyl}-methanesulphonamide]	–	360	90.27	0.02	–	87.67	0.68	84	800
